Assay results published in ChEMBL document CHEMBL1201862, “PubChem BioAssay data set” (2004).
Calls of active or inactive are those of the source.

Legend:
Jurkat = assay: SAR Analysis of small molecule inhibitors of […] specific antigen receptor-induced NF-kB activation in a Jurkat cell line using a luminescence assay - Set 3. [Related pubchem assays (depositor defined):AID435022, AID435025, AID465]; format: functional, cell-based; conditions: Homo sapiens
HEK293 [1] = assay: HEK293T cell viability loss, resazurin readout – resazurin fluorescence, cytotoxicity control for NF-kB activator project, SAR follow-up (AID 493251); format: functional, cell-based; conditions: Homo sapiens
HEK293 [2] = assay: SAR Analysis of small molecule inhibitors of B-cell specific antigen receptor-induced NF-kB activation in a HEK-293T cell line using a luminescence assay - Set 2. [Related pubchem assays (depositor defined):AID435022, AID435025, AID489021]; format: functional, cell-based; conditions: Homo sapiens
[3] = biological target: T1, Serine/threonine-protein phosphatase (Candida dubliniensis (strain CD36 / CBS 7987 / NCPF 3949 / NRRLY-17841) (Yeast), UniProt B9W6M3); assay: Fluorescence Cell-Based Secondary Assay to Identify Inhibitors of Calcineurin. [Related pubchem assays (depositor defined):AID1979, AID2007]; format: functional
T1 sequence (B9W6M3 whole entry): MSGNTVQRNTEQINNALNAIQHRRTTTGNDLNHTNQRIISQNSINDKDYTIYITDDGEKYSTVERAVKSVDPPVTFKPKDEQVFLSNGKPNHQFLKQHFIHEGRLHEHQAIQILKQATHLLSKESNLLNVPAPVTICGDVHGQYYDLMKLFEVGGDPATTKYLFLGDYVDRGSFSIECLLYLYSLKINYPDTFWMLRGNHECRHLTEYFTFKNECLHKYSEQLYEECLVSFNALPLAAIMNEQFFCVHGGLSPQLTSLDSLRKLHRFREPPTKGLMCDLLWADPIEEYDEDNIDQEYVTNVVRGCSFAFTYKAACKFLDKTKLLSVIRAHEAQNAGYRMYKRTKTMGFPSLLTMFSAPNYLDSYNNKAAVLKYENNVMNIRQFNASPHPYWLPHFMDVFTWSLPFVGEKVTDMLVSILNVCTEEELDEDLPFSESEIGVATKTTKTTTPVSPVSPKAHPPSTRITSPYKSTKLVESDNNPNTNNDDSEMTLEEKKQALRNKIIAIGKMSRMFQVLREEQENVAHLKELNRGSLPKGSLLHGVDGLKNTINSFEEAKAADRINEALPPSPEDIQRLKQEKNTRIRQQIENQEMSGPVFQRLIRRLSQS

[4] = fluconazole-exposed Candida albicans growth modulators – fluorescence, retest, confirmation (AID 2467); format: functional, cell-based
[5] = biological target: T1, Serine/threonine-protein phosphatase; assay: blockers of CaCl2-induced CDRE-lacZ signaling – S. cerevisiae, luminescence, secondary, dose response (AID 2388); format: functional, cell-based;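 note: yeast reporter cells carrying a calcineurin-responsive lacZ construct stimulated with calcium chloride; luminescent beta-galactosidase reporter signal in whole cells rather than isolated phosphatase activity; potency for inhibition where a drop in reporter signal means calcineurin blockade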
[6] = biological target: Heat shock protein HSP 90-alpha (Homo sapiens, UniProt P07900); format: functional, organism-based
[7] = NIH-3T3 fibroblast cytotoxicity, dose response, cytotoxicity control, cell-based, fluorescence, Alamar Blue, secondary assay (AID 2327); format: functional;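 note: NIH-3T3 mouse fibroblasts cultured with fluconazole at 8 µg/mL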
[8] = loss of viability in HepG2 cells – cell-based, CellTiter-Glo, cherry-picked, cytotoxicity control for Shn3 inhibitor project, dose response (AID 624134); format: functional
HEK293 [9] = assay: EBV LMP1 TES2 canonical NF-kB signalling blockers – cell-based, HEK293, luciferase, cherry-pick, dose response (AID 588343); format: functional; conditions: Homo sapiens
[10] = reduction of Shn3 3'UTR-driven luciferase in osteoblasts – cell-based, Clone20 osteoblasts, firefly luciferase, cherry-picked, dose response (AID 624132); format: functional;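 note: firefly luciferase luminescence from reporter carrying the Shn3 3'UTR in osteoblasts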
[11] = biological target: ATP-dependent molecular chaperone HSP82 (Candida albicans (strain WO-1) (Yeast), UniProt C4YTQ8); assay: steroid-induced GRE reporter decrease in yeast – S. cerevisiae, luminescence, Hsp90 inhibitor project, dose response (AID 2400); format: functional, cell-based;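 note: beta-galactosidase luminescence from glucocorticoid response element reporter as proxy for Hsp90 function; inhibitor potency where signal loss means Hsp90 inhibition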
ATP-dependent molecular chaperone HSP82, sequence (C4YTQ8 whole entry): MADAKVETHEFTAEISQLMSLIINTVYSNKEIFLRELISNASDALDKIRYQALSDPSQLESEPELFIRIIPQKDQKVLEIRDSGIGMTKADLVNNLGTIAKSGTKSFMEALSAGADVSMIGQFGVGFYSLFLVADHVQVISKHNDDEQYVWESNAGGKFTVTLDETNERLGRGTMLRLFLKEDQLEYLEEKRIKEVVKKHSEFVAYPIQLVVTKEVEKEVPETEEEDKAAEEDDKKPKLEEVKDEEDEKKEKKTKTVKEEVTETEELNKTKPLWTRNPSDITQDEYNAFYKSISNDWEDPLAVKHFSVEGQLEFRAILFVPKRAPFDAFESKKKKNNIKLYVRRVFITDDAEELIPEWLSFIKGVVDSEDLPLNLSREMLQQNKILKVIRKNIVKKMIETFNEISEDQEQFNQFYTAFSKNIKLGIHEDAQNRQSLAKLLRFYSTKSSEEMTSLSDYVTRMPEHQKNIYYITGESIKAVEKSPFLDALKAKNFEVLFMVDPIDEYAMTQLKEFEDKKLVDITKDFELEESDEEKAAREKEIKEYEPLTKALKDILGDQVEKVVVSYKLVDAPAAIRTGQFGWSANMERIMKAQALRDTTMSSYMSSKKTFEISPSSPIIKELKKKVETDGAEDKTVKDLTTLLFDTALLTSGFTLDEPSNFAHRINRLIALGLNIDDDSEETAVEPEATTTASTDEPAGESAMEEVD

[12] = non-specific 3'UTR reporter inhibition in Clone20-Shn3RL – cell-based, Renilla luciferase, cherry-picked, counter-screen for Shn3 inhibitor project, dose response (AID 624133); format: functional
Estrogen receptor = biological target: T2, Estrogen receptor (Homo sapiens, UniProt P03372); assay: ERα coactivator recruitment enhancers – biochemical, TR-FRET, ERα LBD, dose response (AID 737)
T2 sequence (P03372 whole entry): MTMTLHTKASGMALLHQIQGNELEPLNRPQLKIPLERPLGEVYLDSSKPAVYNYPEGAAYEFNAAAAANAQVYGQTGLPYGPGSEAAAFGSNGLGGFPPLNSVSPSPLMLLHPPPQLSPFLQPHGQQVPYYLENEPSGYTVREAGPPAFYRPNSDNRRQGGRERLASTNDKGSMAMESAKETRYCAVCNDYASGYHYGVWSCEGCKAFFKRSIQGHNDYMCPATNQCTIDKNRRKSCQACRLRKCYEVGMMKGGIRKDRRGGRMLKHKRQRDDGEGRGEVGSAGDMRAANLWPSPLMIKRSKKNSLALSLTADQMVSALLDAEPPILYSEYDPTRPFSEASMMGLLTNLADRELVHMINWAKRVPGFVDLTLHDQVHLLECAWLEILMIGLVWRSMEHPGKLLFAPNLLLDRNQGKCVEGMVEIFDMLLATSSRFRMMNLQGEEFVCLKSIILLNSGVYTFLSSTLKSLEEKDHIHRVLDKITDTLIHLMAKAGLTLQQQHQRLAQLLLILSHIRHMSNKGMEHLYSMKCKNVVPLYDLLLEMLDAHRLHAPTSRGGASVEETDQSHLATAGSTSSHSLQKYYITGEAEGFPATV

[13] = biological target: E3 ubiquitin-protein ligase Mdm2 (Homo sapiens, UniProt Q00987); assay: MDM2-luc reporter signal enhancers, multi-concentration potency testing, MDM2 ubiquitin-protein ligase inhibitor program, whole-cell format, luminescence detection, 384-well microplate (AID 1394); format: functional;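 note: MDM2 E3 inhibitors raise luminescence so EC50 is for signal enhancement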
E3 ubiquitin-protein ligase Mdm2, sequence (Q00987 whole entry): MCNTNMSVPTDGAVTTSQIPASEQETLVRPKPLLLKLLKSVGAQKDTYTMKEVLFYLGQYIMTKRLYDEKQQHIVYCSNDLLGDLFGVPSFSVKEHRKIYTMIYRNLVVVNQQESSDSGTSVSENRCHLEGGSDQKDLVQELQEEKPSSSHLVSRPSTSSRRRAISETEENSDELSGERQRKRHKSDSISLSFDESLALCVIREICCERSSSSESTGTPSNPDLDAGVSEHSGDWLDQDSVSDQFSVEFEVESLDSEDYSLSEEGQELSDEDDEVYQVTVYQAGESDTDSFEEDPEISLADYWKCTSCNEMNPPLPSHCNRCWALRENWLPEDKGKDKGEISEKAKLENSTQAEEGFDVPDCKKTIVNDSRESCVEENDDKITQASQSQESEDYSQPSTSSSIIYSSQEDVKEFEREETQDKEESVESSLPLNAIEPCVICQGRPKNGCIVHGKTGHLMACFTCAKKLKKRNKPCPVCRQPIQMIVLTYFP

INS1 = assay: INS-1E survival protection against cytokine death – cell-based, luminescence, retest, dose response (AID 449756); format: functional; conditions: Rattus norvegicus;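 note: cell death triggered by IL-1 beta plus TNF-alpha plus IFN-gamma mixture; protective hits raise ATP signal compared with cytokine alone wells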
[14] = mammalian cell viability loss – Alamar Blue, dry powder, cytotoxicity control for antifungal single agent project, dose response (AID 602188); format: functional, cell-based
[15] = biological target: UDP-galactopyranose mutase (Mycobacterium tuberculosis, UniProt P9WIQ1); assay: Inhibitors of Mycobacterium tuberculosis UDP-galactopyranose mutase (UGM) enzyme Measured in Biochemical System Using Plate Reader - 2105-02_Inhibitor_Dose_CherryPick_Activity. [Related pubchem assays (depositor defined):AID504439]
UDP-galactopyranose mutase, sequence (P9WIQ1 whole entry): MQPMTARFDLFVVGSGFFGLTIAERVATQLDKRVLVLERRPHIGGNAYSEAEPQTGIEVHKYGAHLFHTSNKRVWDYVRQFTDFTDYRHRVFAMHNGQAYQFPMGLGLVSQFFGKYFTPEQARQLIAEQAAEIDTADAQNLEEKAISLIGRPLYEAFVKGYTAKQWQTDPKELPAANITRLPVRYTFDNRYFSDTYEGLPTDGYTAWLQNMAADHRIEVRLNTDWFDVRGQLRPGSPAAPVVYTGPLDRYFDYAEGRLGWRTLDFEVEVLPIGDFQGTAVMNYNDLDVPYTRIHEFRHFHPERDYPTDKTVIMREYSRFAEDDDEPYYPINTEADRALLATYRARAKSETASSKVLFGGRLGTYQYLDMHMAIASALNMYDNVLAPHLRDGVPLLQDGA

[16] = biological target: T3, Endoribonuclease toxin MazF (Escherichia coli K-12, UniProt P0AE70); assay: activation of MazEF endoribonuclease cleavage – biochemical, fluorescence, single-stranded RNA substrate, uHTS hits, dose response (AID 588481); format: functional
T3 sequence (P0AE70 whole entry): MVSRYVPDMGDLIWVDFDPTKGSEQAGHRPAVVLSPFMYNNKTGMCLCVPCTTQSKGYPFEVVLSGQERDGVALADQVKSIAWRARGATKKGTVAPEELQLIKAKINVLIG

[17] = biological target: T3, Endoribonuclease toxin MazF; assay: substrate-only fluorescence increase artefacts – biochemical, single-stranded RNase substrate, counter-screen for MazEF activator project, dose response (AID 588502); format: functional

Compound: CCOc1ccccc1NC(=O)CCc1nc(-c2ccc(C(C)(C)C)cc2)no1
- IC50 (Jurkat): 1.02 µM (active)
- IC50 (HEK293 [1]): > 80 µM (inactive)
- IC50 (HEK293 [2]): 0.46 µM (active)

Compound: O=C(Nc1nc(-c2ccccn2)cs1)c1ccc(Br)s1
- EC50 [3]: 15.7 µM (active)
- EC50 [4]: 1.81 µM (active)
- EC50 [5]: > 180 µM (inactive)
- AC50 [6]: 1.83 µM (active)
- EC50 [7]: > 160 µM (inactive)
- AC50 [8]: 3.78 µM (active)
- AC50 (HEK293 [9]): 0.637 µM (active)
- AC50 [10]: 1 µM (active)
- EC50 [11]: 4.31 µM (active)
- AC50 [12]: 0.743 µM (active)
- EC50 (Estrogen receptor): 24.5 µM (not active)
- EC50 [13]: 22.7 µM (not active)
- AC50 (INS1): 1.03 µM (active)
- AC50 [14]: 0.991 µM (active)

Compound: Cc1cccc(N2C(=O)NC(=O)/C(=C/c3cc4c(cc3[N+](=O)[O-])OCO4)C2=O)c1
- AC50 [15]: 45 µM (active)
- EC50 [16]: > 99 µM (inactive)
- EC50 [17]: > 99 µM (inactive)
